Values belong to the molecule of their own block, whether it stands above or below them.
Experiments:
[1] = biological target: T1, LDHA (lactate dehydrogenase A) (Homo sapiens, UniProt P00338); test: spectrophotometric reduction with NADH; assay type: biochemical
T1 construct: gift clone

PSAT1 = biological target: T2, PSAT1 (Homo sapiens, UniProt Q9Y617); test: end-point GDH assay of alpha-ketoglutarate; LC-MS of product; assay type: biochemical; settings: L-Glu 1 mM as donor; pH 7.2, 37 C, 16 h
T2 sequence (Q9Y617 1-370): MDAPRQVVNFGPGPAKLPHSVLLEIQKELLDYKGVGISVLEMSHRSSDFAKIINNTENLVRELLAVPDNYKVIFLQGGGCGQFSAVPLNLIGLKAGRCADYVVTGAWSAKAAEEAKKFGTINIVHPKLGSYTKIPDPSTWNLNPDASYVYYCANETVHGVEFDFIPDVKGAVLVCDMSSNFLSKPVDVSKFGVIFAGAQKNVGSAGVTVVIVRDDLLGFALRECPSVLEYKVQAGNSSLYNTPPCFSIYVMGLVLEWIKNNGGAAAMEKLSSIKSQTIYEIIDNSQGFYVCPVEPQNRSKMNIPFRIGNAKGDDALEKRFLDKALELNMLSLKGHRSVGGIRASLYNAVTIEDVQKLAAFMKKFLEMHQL

[2] = biological target: T3, MDH1 (cytosolic malate dehydrogenase) (Homo sapiens, UniProt P40925); test: spectrophotometric reduction with NADH; assay type: biochemical
T3 construct: from human kidney cDNA, pET28a, His6-tagged, expressed in E. coli BL21(DE)
T3 sequence (P40925 2-334): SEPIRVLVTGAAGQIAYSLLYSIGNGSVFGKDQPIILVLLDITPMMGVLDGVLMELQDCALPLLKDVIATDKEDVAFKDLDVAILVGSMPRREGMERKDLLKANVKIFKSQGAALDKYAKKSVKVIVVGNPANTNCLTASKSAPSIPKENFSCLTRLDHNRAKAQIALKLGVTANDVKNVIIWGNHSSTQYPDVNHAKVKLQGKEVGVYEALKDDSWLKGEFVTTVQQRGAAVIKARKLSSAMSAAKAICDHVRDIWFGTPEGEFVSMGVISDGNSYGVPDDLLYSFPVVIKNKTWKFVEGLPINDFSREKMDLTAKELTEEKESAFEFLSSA

[3] = biological target: T4, TAT (tyrosine aminotransferase) (Homo sapiens, UniProt P17735); test: continuous coupled assay with MDH1 and NADH; assay type: biochemical; settings: alpha-ketoglutarate 0.5 mM as acceptor; pH 8.0; read-out: apparent KM
T4 sequence (P17735 41-454): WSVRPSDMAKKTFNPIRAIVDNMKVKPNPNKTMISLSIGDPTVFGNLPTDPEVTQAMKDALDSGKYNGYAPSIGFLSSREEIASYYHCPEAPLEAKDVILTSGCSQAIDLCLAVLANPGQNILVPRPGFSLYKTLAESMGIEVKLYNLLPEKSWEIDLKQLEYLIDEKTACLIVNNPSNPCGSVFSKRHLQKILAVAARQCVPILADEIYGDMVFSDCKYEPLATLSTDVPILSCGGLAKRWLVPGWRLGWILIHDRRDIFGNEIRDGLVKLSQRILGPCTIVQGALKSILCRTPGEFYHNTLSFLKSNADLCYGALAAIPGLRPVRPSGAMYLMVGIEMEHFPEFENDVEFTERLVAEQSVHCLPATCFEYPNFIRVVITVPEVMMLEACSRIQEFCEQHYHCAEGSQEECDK
Excerpt: continuous coupled assay with MDH1 and NADH on TAT (tyrosine aminotransferase) | the opposite is true for TAT (Fig. 3A)

[4] = substrate: N[C@@H](Cc1c[nH]c2ccccc12)C(=O)O; test: continuous coupled assay with MDH1 and NADH; assay type: biochemical, Homo sapiens; settings: pyruvate 3 mM as acceptor, pH 8.0

Molecule: CC(O)C(=O)C(=O)O (stereo not drawn) [3-hydroxy-2-ketobutyrate]
spectrophotometric reduction with NADH [1]: 3-hydroxy-2-ketobutyrate, is a substrate for LDHA

end-point GDH assay of alpha-ketoglutarate; LC-MS of product (PSAT1): DHAP, which reacted primarily with PSAT1
Molecule: O=C(CO)COP(=O)(O)O [DHAP]

Molecule: O=C(O)C(=O)Cc1c[nH]c2ccccc12 [IndPy]
spectrophotometric reduction with NADH [2]: recombinant MDH1 reduced with good efficiency IndPy

Km [3]: > 10 mM
Molecule: N[C@@H](Cc1c[nH]c2ccccc12)C(=O)O [L-Trp]

B1: GTK (glutamine transaminase K; KYAT1) (Homo sapiens) (protein)
chain: MAKQLQARRLDGIDYNPWVEFVKLASEHDVVNLGQGFPDFPPPDFAVEAFQHAVSGDFMLNQYTKTFGYPPLTKILASFFGELLGQEIDPLRNVLVTVGGYGALFTAFQALVDEGDEVIIIEPFFDCYEPMTMMAGGRPVFVSLKPGPIQNGELGSSSNWQLDPMELAGKFTSRTKALVLNTPNNPLGKVFSREELELVASLCQQHDVVCITDEVYQWMVYDGHQHISIASLPGMWERTLTIGSAGKTFSATGWKVGWVLGPDHIMKHLRTVHQNSVFHCPTQSQAAVAESFEREQLLFRQPSSYFVQFPQAMQRCRDHMIRSLQSVGLKPIIPQGSYFLITDISDFKRKMPDLPGAVDEPYDRRFVKWMIKNKGLVAIPVSIFYSVPHQKHFDHYIRFCFVKDEATLQAMDEKLRKWKVEL
notes: cytosolic enzyme
Km [4]: 0.14 ± 0.03 mM | kcat/Km [4]: 490 ± 30 M⁻¹ s⁻¹

— publication PMC9283133, “Human cytosolic transaminases: side activities and patterns of discrimination towards physiologically available alternative substrates” (Cellular and Molecular Life Sciences: CMLS, 2022)
